Assay results as given in article PMC6024778 (Viruses, 2018).

Tested on: rMERS-CoV-S2
Assay type: cell-based, MERS-CoV

CN1CCN(CCOc2cc(OC3CCOCC3)c3c(Nc4c(Cl)ccc5c4OCO5)ncnc3c2)CC1 [Saracatinib]
EC50: 9 µM
